One assay deals with MV4-11 cells. The assay can be described thus: MV4-11 6-day cell growth CTG (CellTiter-Glo) assay. The class given is cell-based. The note with it: 6 days, read-out: (c) MLL/WDR5 cell proliferation assay//MLL/WDR5 proliferation MV4:11 Qualified AC50. The method in brief:
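Exponentially growing MV4-11 AML cells (RPMI 1640, 10% FBS) seeded at 300 cells/well with 12-point 1:3 compound dilutions, top final concentration 50 μM. Viability read by CellTiter-Glo luminescence after 6 days at 37° C; % inhibition vs DMSO-only wells fitted to dose-response for IC50.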
(Cellular ATP, detected with luciferase, serves as a proxy for viable cell number.)

Assay [1] concerns the target wild type MLL1 four-member complex (MLL1-4C) (Homo sapiens, UniProt P61964). The assay can be described thus: MLL1 LC-MS assay (SAH production). The format is biochemical. The following applies: read-out: (b) MLL LCMS Peptide Val.v.1 Qualified AC50. The method in brief: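 MLL1-4C (30 nM final) was preincubated 20 min with compound (3-fold dilutions, 8 or 12 points) and SAM in Tris-HCl pH 8.0 buffer. H3K4me0 peptide (histone H3[1-21]-biotin) was then added, giving final 2.5 μM SAM and 10 μM substrate, and reactions ran 120 min at rt. After TFA/d4-SAH quench, SAH was quantified by LC-MS/MS and IC50 fitted from control-normalised activity.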

In the next assay the target is WDR5 (Homo sapiens, UniProt P61964). The assay can be described thus: WDR5 HTRF binding assay. The following applies: read-out: (a) WDR5 HTRF Pep Val v.1[Inhibitor/IC50]Qualified AC50. The method in brief: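 6 nM WDR5 and 20 nM biotin-MLL1 WIN peptide (3762-3773) were incubated with compound (12-point, 3-fold dilutions) in pH 7.5 Hepes/NaCl/DTT buffer for 20 min at rt. Streptavidin-APC plus anti-His-Eu were then added for 1 hr, with HTRF read at 665/615. IC50 was fit from control-normalized activity; the counter assay used 15 nM biotin-PEG-His peptide.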
In general terms: TR-FRET usually uses a lanthanide donor and a delayed reading to cut background.

Where two headings read alike, the source gives them in different places.

Turning to `CNc1nccn1Cc1cc(CN2CC(F)(F)C2)c2c(c1)C(=O)N(Cc1cc(OC)c(F)cn1)CC2` [Example 38, 5-((3,3-difluoroazetidin-1-yl)methyl)-2-((5-fluoro-4-methoxypyridin-2-yl)methyl)-7-((2-(methylamino)-1H-imidazol-1-yl)methyl)-3,4-dihydroisoquinolin-1(2H)-one], the AC50 in the assay on MV4-11 cells (Homo sapiens, MV4-11, 144 h) lay within 0.01 to 1 µM; in assay [1], 0.01 to 1 µM. Further, the IC50 at WDR5 was 0.01 to 1 µM.

In the case of `CCOc1cc([C@H](C)N2CCc3c(Cl)cc(Cn4ccnc4NC)cc3C2=O)ncc1C#N` (single isomer, unassigned) [Example 3], the AC50 lay within 0.01 to 1 µM in the assay with MV4-11 cells (Homo sapiens, MV4-11, 144 h) and 0.01 to 1 µM in assay [1]. Moreover, at WDR5, the IC50 is < 0.01 µM.

For `CCOc1cc(C(C)N2CCc3c(cc(CCN(C)CC)cc3-c3cc(Cl)nnc3C)C2=O)ncc1C#N` (stereo not drawn) [Example 203, 6-(1-(5-(6-chloro-3-methylpyridazin-4-yI)-7-(2-(ethyl(methyl)amino)ethyl)-1-oxo-3,4-dihydroisoquinolin-2(1H)-yl)ethyl)-4-ethoxynicotinonitrile], the AC50 fell in the range of 0.01 to 1 µM in the assay with MV4-11 cells (Homo sapiens, MV4-11, 144 h) and 0.01 to 1 µM in assay [1]. For the same compound, the IC50 on WDR5 fell in the range of 0.01 to 1 µM.

As to `CCOc1cc([C@H](C)N2CCc3c(cc(CCN(C)CC)cc3-c3cc(OC)ncc3C)C2=O)ncc1C#N` [Example 188, (S)-4-ethoxy-6-(1-(7-(2-(ethyl(methyl)amino)ethyl)-5-(2-methoxy-5-methylpyridin-4-yl)-1-oxo-3,4-dihydroisoquinolin-2(1H)-yl)ethyl)nicotinonitrile], the AC50 lay within 0.01 to 1 µM with MV4-11 cells (Homo sapiens, MV4-11, 144 h) and 0.01 to 1 µM in assay [1]. In addition, the IC50 on WDR5 was < 0.01 µM.

Regarding `CCOc1cc([C@H](C)N2CCc3c(cc(CCN(C)CC)cc3-c3cn(C)c(=O)cc3C(F)(F)F)C2=O)ncc1C#N` [Example 182, (S)-4-ethoxy-6-(1-(7-(2-(ethyl(methyl)amino)ethyl)-5-(1-methyl-6-oxo-4-(trifluoromethyl)-1,6-dihydropyridin-3-yl)-1-oxo-3,4-dihydroisoquinolin-2(1H)-yl)ethyl)nicotinonitrile], the AC50 in the assay with MV4-11 cells (Homo sapiens, MV4-11, 144 h) was 0.01 to 1 µM; in assay [1], 0.01 to 1 µM. The IC50 on WDR5 is < 0.01 µM.

As to `CCOc1cc([C@H](C)N2CCc3c(cc(CCN(C)CC)cc3-c3cn(CC)nc3C)C2=O)ncc1C#N` [Example 127, (S)-4-ethoxy-6-(1-(7-(2-(ethyl(methyl)amino)ethyl)-5-(1-ethyl-3-methyl-1H-pyrazol-4-yl)-1-oxo-3,4-dihydroisoquinolin-2(1H)-yl)ethyl)nicotinonitrile], the AC50 in the assay with MV4-11 cells (Homo sapiens, MV4-11, 144 h) lay within 0.01 to 1 µM; in assay [1], 0.01 to 1 µM. Besides, the IC50 on WDR5 was < 0.01 µM.

Take `CCOc1cc([C@H](C)N2CCc3c(cc(Cn4ccnc4C)cc3-c3cn(CCO)nc3C)C2=O)ncc1C#N` [Example 271]: the AC50 is 0.01 to 1 µM in the assay with MV4-11 cells (Homo sapiens, MV4-11, 144 h) and 0.01 to 1 µM in assay [1]. Further, the IC50 on WDR5 is < 0.01 µM.

On to `CNc1nccn1Cc1cc(-c2cc(CO)cnc2Cl)c2ccn(Cc3cc4ccccc4[nH]3)c(=O)c2c1` [Example 108, 2-((1H-indol-2-yl)methyl)-5-(2-chloro-5-(hydroxymethyl)pyridin-3-yl)-7-((2-(methylamino)-1H-imidazol-1-yl)methyl)isoquinolin-1(2H)-one], for which the AC50 lay in the range of 0.01 to 1 µM in the assay on MV4-11 cells (Homo sapiens, MV4-11, 144 h) and 0.01 to 1 µM in assay [1]. The IC50 on WDR5 lay within 0.01 to 1 µM.

Consider `CCOc1cc(C(C)N2CCc3c(Br)cc(Cn4ccnc4NC)cc3C2=O)ncc1C#N` (stereo not drawn) [Example 1, 6-(1-(5-bromo-7-((2-(methylamino)-1H-imidazol-1-yl)methyl)-1-oxo-3,4 dihydroisoquinolin-2(1H)-yl)ethyl)-4-ethoxynicotinonitrile], for which the AC50 is 0.01 to 1 µM in the assay with MV4-11 cells (Homo sapiens, MV4-11, 144 h) and 0.01 to 1 µM in assay [1]. Besides, the IC50 on WDR5 lay within 0.01 to 1 µM.

Turning to `CNc1nccn1Cc1cc2c(c(-c3cc([C@H](C)O)cnc3Cl)c1)CCN(Cc1ccc(F)c(OC)c1)C2=O` (single isomer, unassigned) [Example 76], the AC50 in the assay with MV4-11 cells (Homo sapiens, MV4-11, 144 h) lay within 0.01 to 1 µM; in assay [1], 0.01 to 1 µM. Also, the IC50 on WDR5 is < 0.01 µM.

As for `CCOc1cc(C(C)N2CCc3c(cc(CCN(C)CCF)cc3-c3cn(C)nc3C)C2=O)ncc1C#N` (stereo not drawn) [Example 241], the AC50 in the assay with MV4-11 cells (Homo sapiens, MV4-11, 144 h) was 0.01 to 1 µM; in assay [1], 0.01 to 1 µM. For the same compound, the IC50 at WDR5 fell in the range of 0.01 to 1 µM.

In the case of `CCOc1cc(CN2CCc3c(CN4CC(C)C4)cc(Cn4ccnc4NC)cc3C2=O)cnc1C#N` [Example 25, 3-ethoxy-5-((7-((2-(methylamino)-1H-imidazol-1-yl)methyl)-5-((3-methylazetidin-1-yl)methyl)-1-oxo-3,4-dihydroisoquinolin-2(1H)-yl)methyl)picolinonitrile], the AC50 with MV4-11 cells (Homo sapiens, MV4-11, 144 h) lay in the range of 0.01 to 1 µM; in assay [1], 0.01 to 1 µM. Moreover, the IC50 at WDR5 lay within 0.01 to 1 µM.

`CCOc1cc(CN2CCc3c(CN(C)C)cc(Cn4ccnc4NC)cc3C2=O)cnc1C#N` [Example 24, 5-((5-((dimethylamino)methyl)-7-((2-(methylamino)-1H-imidazol-1-yl)methyl)-1-oxo-3,4-dihydroisoquinolin-2(1H)-yl)methyl)-3-ethoxypicolinonitrile]: the AC50 was in the range of 0.01 to 1 µM in the assay with MV4-11 cells (Homo sapiens, MV4-11, 144 h) and 0.01 to 1 µM in assay [1]. At WDR5, the IC50 was in the range of 0.01 to 1 µM.

For `CCOc1cc([C@H](C)N2CCc3c(cc(Cn4ccnc4C)cc3-c3cn(C)c(=O)cc3C)C2=O)ncc1C#N` [Example 275], the AC50 in the assay on MV4-11 cells (Homo sapiens, MV4-11, 144 h) was in the range of 0.01 to 1 µM; in assay [1], 0.01 to 1 µM. Further, the IC50 on WDR5 was < 0.01 µM.

With `CCOc1cc([C@H](C)N2CCc3c(cc(CCN(C)C4COC4)cc3-c3ccc(F)nc3C)C2=O)ncc1C#N` [Example 253], the AC50 in the assay with MV4-11 cells (Homo sapiens, MV4-11, 144 h) lay within 0.01 to 1 µM; in assay [1], 0.01 to 1 µM. Also, the IC50 on WDR5 lay within 0.01 to 1 µM.

Turning to `CCOc1cc(CN2CCc3c(CN4CC(F)(F)C4)cc(Cn4ccnc4NC)cc3C2=O)cnc1C#N` [Example 46, 5-((5((3,3-difluoroazetidin-1-yl)methyl)-7-((2-(methylamino)-1H-imidazol-1-yl)methyl)-1-oxo-3,4-dihydroisoquinolin-2(1H)-yl)methyl)-3-ethoxypicolinonitrile], the AC50 in the assay on MV4-11 cells (Homo sapiens, MV4-11, 144 h) was 0.01 to 1 µM; in assay [1], 0.01 to 1 µM. Further, the IC50 on WDR5 fell in the range of 0.01 to 1 µM.

For the compound `CCOc1cc(CN2CCc3c(cc(CCN(C)CC)cc3-c3cc(C)cnc3Cl)C2=O)ncc1C#N` [Example 112, 6-((5-(2-chloro-5-methylpyridin-3-yl)-7-(2-(ethyl(methyl)amino)ethyl)-1-oxo-3,4-dihydroisoquinolin-2(1H)-yl)methyl)-4-ethoxynicotinonitrile], the AC50 with MV4-11 cells (Homo sapiens, MV4-11, 144 h) lay within 0.01 to 1 µM; in assay [1], 0.01 to 1 µM. In addition, on WDR5, the IC50 is < 0.01 µM.

For the compound `CCOc1cc(C(C)N2CCc3c(cc(CCN(C)CC)cc3-c3cc(F)ncc3C)C2=O)ncc1C#N` (stereo not drawn) [Example 143, 4-ethoxy-6-(1-(7-(2-(ethyl(methyl)amino)ethyl)-5-(2-fluoro-5-methylpyridin-4-yl)-1-oxo-3,4-dihydroisoquinolin-2(1H)-yl)ethyl)nicotinonitrile], the AC50 was 0.01 to 1 µM with MV4-11 cells (Homo sapiens, MV4-11, 144 h) and 0.01 to 1 µM in assay [1]. In addition, the IC50 on WDR5 was in the range of 0.01 to 1 µM.

As for `CCOc1cc([C@H](C)N2CCc3c(CN(C)C)cc(Cn4ccnc4NC)cc3C2=O)ncc1F` (single isomer, unassigned) [Example 19], the AC50 in the assay on MV4-11 cells (Homo sapiens, MV4-11, 144 h) lay within 0.01 to 1 µM; in assay [1], 0.01 to 1 µM. For the same compound, the IC50 at WDR5 fell in the range of 0.01 to 1 µM.

On to `CNc1nccn1Cc1cc2c(c(-c3cn(C)nc3C(F)(F)F)c1)CCN(Cc1ccc(F)c(OC)c1)C2=O` [Example 54, 2-(4-fluoro-3-methoxybenzyl)-5-(1-methyl-3-(trifluoromethyl)-1H-pyrazol-4-yl)-7-((2-(methylamino)-1H-imidazol-1-yl)methyl)-3,4-dihydroisoquinolin-1(2H)-one], for which the AC50 is 0.01 to 1 µM in the assay with MV4-11 cells (Homo sapiens, MV4-11, 144 h) and 0.01 to 1 µM in assay [1]. Further, at WDR5, the IC50 lay in the range of 0.01 to 1 µM.

`CCOc1cc([C@H](C)N2CCc3c(cc(CCN4C[C@@H](O)[C@H]4C)cc3-c3cc(C(F)F)cnc3C)C2=O)ncc1C#N` [Example 218]: the AC50 was 0.01 to 1 µM in the assay on MV4-11 cells (Homo sapiens, MV4-11, 144 h) and 0.01 to 1 µM in assay [1]. In addition, the IC50 at WDR5 was < 0.01 µM.

Turning to `CCOc1cc(C(C)N2CCc3c(cc(Cn4ccnc4C)cc3-c3cn(C)nc3C)C2=O)ncc1C#N` (racemic) [Example 262, 6-(1-(5-(1,3-dimethyl-1H-pyrazol-4-yl)-7-((2-methyl-1H-imidazol-1-yl)methyl)-1-oxo-3,4-dihydroisoquinolin-2(1H)-yl)ethyl)-4-ethoxynicotinonitrile], the AC50 with MV4-11 cells was < 0.01 µM; in assay [1] it was 0.01 to 1 µM. On WDR5, the IC50 was < 0.01 µM.

As to `CNc1nccn1Cc1cc2c(c(-c3ccnn3C)c1)CCN(Cc1cc(OC)c(F)cn1)C2=O` [Example 60, 2-((5-fluoro-4-methoxypyridin-2-yl)methyl)-5-(1-methyl-1H-pyrazol-5-yl)-7-((2-(methylamino)-1H-imidazol-1-yl)methyl)-3,4-dihydroisoquinolin-1(2H)-one], the AC50 in the assay with MV4-11 cells (Homo sapiens, MV4-11, 144 h) was in the range of 0.01 to 1 µM; in assay [1], 0.01 to 1 µM. Further, the IC50 at WDR5 is 0.01 to 1 µM.

Values taken from US20220289732A1, “HETEROCYCLIC WDR5 INHIBITORS AS ANTI-CANCER COMPOUNDS” (NOVARTIS AG, priority 2019, published 2022).
